Experimental data published in patent US9211310B2, “Use of a Chinese medicine composition in preparing medicaments for treating secondary prevention of myocardial infarction” (TASLY PHARMACEUTICAL GROUP CO., LTD, priority 2010, dated 2015).

Tested on: patients after acute myocardial infarction
Experiment: Life quality, Seattle Angina Questionnaire (SAQ), same clinical trial
Format: in vivo, human
Settings: FAS
From the text: 3508 patients who were in accordance with the diagnostic standards of AMI for 28 days to 2 years and differentiated as Qi deficiency and blood stagnation syndrome by TCM were studied. 0.5 g Chinese medicine composition prepared by the method of EXAMPLE 1 (Coded as QSYQ) was administrated half an hour after meal, 3 times per day.
There were 19 questions in the Seattle angina questionnaire (SAQ), including 5 parts: physical limitation (PL), anginal stability (AS), anginal frequency (AF), treatment satisfaction (TS) and disease perception (DP). After being given necessary explanation by doctors, the questions were answered independently by patients.
They included the overall survival time, angina pectoris score, TCM symptom score and life quality score, where angina pectoris score, TCM symptom score and life quality score were evaluated at randomization, in 1st, 3rd, 6th, 9th, 12th month after treatment and 18th month after follow-up.
All evaluation results of SAQ were described during the period of observation, and Wilcoxon rank sum test was used for inter-group comparison.
The evaluation results in the SAQ were depicted in different observations, and inter-group comparison was tested by Wilcoxon Rank-sum test.

CC(=O)Oc1ccccc1C(=O)O [Control group, aspirine]
SAQ Question 1-6: Not limited, patients (%) (Baseline): (25.85%)
SAQ Question 1-6: Other reasons, patients (%) (Baseline): (0.92%)
SAQ Question 1-6: Severely limited, patients (%) (Baseline): (6.75%)
SAQ Question 1-6: Slightly limited, patients (%) (Baseline): (27.64%)
SAQ Question 1-7: Mildly limited, patients (%) (Baseline): (24.74%)
SAQ Question 1-7: Moderately limited, patients (%) (Baseline): (19.42%)
SAQ Question 1-7: Not limited, patients (%) (Baseline): (10.64%)
SAQ Question 1-7: Other reasons, patients (%) (Baseline): (2.81%)
SAQ Question 1-7: Severely limited, patients (%) (Baseline): (20.94%)
SAQ Question 1-7: Slightly limited, patients (%) (Baseline): (21.46%)
SAQ Question 1-8: Mildly limited, patients (%) (Baseline): (23.63%)
SAQ Question 1-8: Moderately limited, patients (%) (Baseline): (22.57%)
SAQ Question 1-8: Not limited, patients (%) (Baseline): (8.07%)
SAQ Question 1-8: Other reasons, patients (%) (Baseline): (2.40%)
SAQ Question 1-8: Severely limited, patients (%) (Baseline): (25.96%)
SAQ Question 1-8: Slightly limited, patients (%) (Baseline): (17.37%)
8th question: Dissatisfied, patients (%) (Follow-up): (0.07%)
8th question: Highly satisfied, patients (%) (Follow-up): (28.03%)
8th question: Mostly dissatisfied, patients (%) (Follow-up): (0.62%)
8th question: Mostly satisfied, patients (%) (Follow-up): (60.61%)
8th question: Partly satisfied, patients (%) (Follow-up): (10.67%)
9th question: Few, patients (%) (Follow-up): (44.26%)
9th question: Mild, patients (%) (Follow-up): (27.29%)
9th question: Moderate, patients (%) (Follow-up): (3.78%)
9th question: Severe, patients (%) (Follow-up): (0.14%)
9th question: Uneffective, patients (%) (Follow-up): (24.54%)
10th question: Dissatisfied, patients (%) (Follow-up): (18.50%)
10th question: Highly satisfied, patients (%) (Follow-up): (9.56%)
10th question: Mostly dissatisfied, patients (%) (Follow-up): (19.05%)
10th question: Mostly satisfied, patients (%) (Follow-up): (32.12%)
10th question: Partly satisfied, patients (%) (Follow-up): (20.77%)
11th question: Continuously worried, patients (%) (Follow-up): (1.38%)
11th question: No worried, patients (%) (Follow-up): (8.80%)
11th question: Occasionally worried, patients (%) (Follow-up): (38.93%)
11th question: Often worried, patients (%) (Follow-up): (6.74%)
11th question: Seldom worried, patients (%) (Follow-up): (44.15%)
SAQ 4th question, 1-2 times per week: % of patients (Follow-up): (13.28%)
SAQ 4th question, 1-2 times per week: number of patients (Follow-up): 192
SAQ 4th question, 1-3 times per week: % of patients (Follow-up): (2.84%)
SAQ 4th question, 1-3 times per week: number of patients (Follow-up): 41
SAQ 4th question, <1 time per week: % of patients (Follow-up): (16.04%)
SAQ 4th question, <1 time per week: number of patients (Follow-up): 232
SAQ 4th question, Not used: % of patients (Follow-up): (66.04%)
SAQ 4th question, Not used: number of patients (Follow-up): 955
SAQ 4th question, ≧3 times per week: % of patients (Follow-up): (1.80%)
SAQ 4th question, ≧3 times per week: number of patients (Follow-up): 26
SAQ 4th question, ≧4 times per day: % of patients (Follow-up): (0.00%)
SAQ 4th question, ≧4 times per day: number of patients (Follow-up): 0
SAQ 5th question, 1-2 times per week: % of patients (Follow-up): (32.97%)
SAQ 5th question, 1-2 times per week: number of patients (Follow-up): 478
SAQ 5th question, 1-3 times per day: % of patients (Follow-up): (3.17%)
SAQ 5th question, 1-3 times per day: number of patients (Follow-up): 46
SAQ 5th question, <1 time per week: % of patients (Follow-up): (31.17%)
SAQ 5th question, <1 time per week: number of patients (Follow-up): 452
SAQ 5th question, No onset: % of patients (Follow-up): (7.52%)
SAQ 5th question, No onset: number of patients (Follow-up): 109
SAQ 5th question, ≧3 times per week: % of patients (Follow-up): (25.03%)
SAQ 5th question, ≧3 times per week: number of patients (Follow-up): 363
SAQ 5th question, ≧4 times per day: % of patients (Follow-up): (0.14%)
SAQ 5th question, ≧4 times per day: number of patients (Follow-up): 2
SAQ 6th question, Dissatisfied: % of patients (Follow-up): (0.00%)
SAQ 6th question, Dissatisfied: number of patients (Follow-up): 0
SAQ 6th question, Highly satisfied: % of patients (Follow-up): (28.18%)
SAQ 6th question, Highly satisfied: number of patients (Follow-up): 410
SAQ 6th question, Mostly dissatisfied: % of patients (Follow-up): (0.62%)
SAQ 6th question, Mostly dissatisfied: number of patients (Follow-up): 9
SAQ 6th question, Mostly satisfied: % of patients (Follow-up): (62.75%)
SAQ 6th question, Mostly satisfied: number of patients (Follow-up): 913
SAQ 6th question, Partly satisfied: % of patients (Follow-up): (8.45%)
SAQ 6th question, Partly satisfied: number of patients (Follow-up): 123
SAQ 7th question, Dissatisfied: % of patients (Follow-up): (0.00%)
SAQ 7th question, Dissatisfied: number of patients (Follow-up): 0
SAQ 7th question, Highly satisfied: % of patients (Follow-up): (30.56%)
SAQ 7th question, Highly satisfied: number of patients (Follow-up): 444
SAQ 7th question, Mostly dissatisfied: % of patients (Follow-up): (0.28%)
SAQ 7th question, Mostly dissatisfied: number of patients (Follow-up): 4
SAQ 7th question, Mostly satisfied: % of patients (Follow-up): (62.49%)
